Experimental findings from PMC9490236, “Accurate de novo design of membrane-traversing macrocycles” (Cell, 2022) are described below.

Where a SMILES comes first, the peptide text is derived from it. [ ]: non-standard residue; d: D form. dNMeI = CC[C@@H](C)[C@@H](NC)C(=O)O; NMeL = CN[C@@H](CC(C)C)C(=O)O; Sar = CNCC(=O)O

A short description of data set [1]: Caco-2 permeability assay (apical to basolateral). Format: in vitro ADME, human. Particulars: for Papp A→B: Caco-2, Caco_Papp_Average. Summed up: (§1)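 Caco-2 monolayers were grown on 0.4 μm Transwell inserts for 6 days. Peptides were applied apically at 50 μM with HBSS basolaterally and incubated 90 min at 37°C with shaking.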
The next data set concerns Caco-2 cells. Briefly: Caco-2 permeability assay (apical to basolateral). Format: in vitro ADME, human. The settings on record: Caco-2. The essentials: as §1
The conditions of data set [2]: PAMPA.
The next data set in a line: in vitro. The settings on record: PAMPA, PAMPA_Papp_Avg.

`CC[C@@H](C)[C@H]1NC(=O)[C@@H]2CCCN2C(=O)[C@@H]([C@H](C)CC)NC(=O)CN(C)C(=O)[C@H](CC(C)C)NC(=O)[C@@H](Cc2ccccc2)NC(=O)[C@H](CC(C)C)N(C)C(=O)[C@H]2CCCN2C(=O)[C@@H](CC(C)C)NC(=O)[C@H](CC(C)C)NC(=O)[C@H]2CCCN2C1=O` [Design D11.2, DILE DPRO LEU DLEU DPRO *LEU DPHE LEU *GLY DILE PRO] (cyclo(L[Sar][dI]P[dI][dP]L[dL][dP][NMeL][dF])) returned a Papp A→B in data set [1] of 2.82 ×10⁻⁶ cm/s. In the data set on Caco-2 cells, this compound gave a Caco_R1 of 1.94 and a Caco_R3 of 2.65. In data set [2], this compound registered a PAMPA_R1 of 1.82E-06 and a PAMPA_R3 of 2.50E-06. For the same compound, the Papp in “in vitro” came to 2.15 ×10⁻⁶ cm/s.
`CC[C@@H](C)[C@H]1NC(=O)[C@H]([C@@H](C)CC)NC(=O)[C@H](CC(C)C)N(C)C(=O)[C@H]2CCCN2C(=O)[C@@H]([C@H](C)CC)NC(=O)[C@@H]([C@H](C)CC)N(C)C(=O)[C@H](CC(C)C)NC(=O)[C@H]2CCCN2C(=O)[C@@H]2CCCN2C(=O)[C@H](C(C)C)NC(=O)[C@H]2CCCN2C1=O` [Design D11.3, VAL PRO DPRO LEU *DILE DILE DPRO *LEU ILE DILE DPRO] (cyclo(I[dI][dP]VP[dP]L[dNMeI][dI][dP][NMeL])): the Papp in data set [1] (Caco-2) was found to be 9.11 ×10⁻⁶ cm/s. In data set [1], this compound showed a Papp A→B of 9.11 ×10⁻⁶ cm/s. In the data set on Caco-2 cells, this compound returned a Caco_R1 of 7.29 and a Caco_R3 of 11.26. In data set [2], this compound had a PAMPA_R1 of 1.91E-06 and a PAMPA_R3 of 1.10E-06. The Papp in “in vitro” is 1.48 ×10⁻⁶ cm/s.
